The test relates to Plasmodium falciparum. Nature of the test: GSK_TCMDC: Inhibition of Plasmodium falciparum 3D7 in whole erythrocytes, using parasite LDH activity as an index of growth. Type of test: functional, organism-based. The note with it: Plasmodium falciparum, 3D7.
For `Cc1ccc2c(N/N=C/c3ccccc3[N+](=O)[O-])cc(C)nc2c1`, the XC50 is 416 nM.

Compound `CCN(CC)CCN(Cc1ccc(-c2ccc(C(F)(F)F)cc2)cc1)C(=O)Cn1c(CCc2cccc(F)c2F)c(C)c(=O)c2ccccc21` displayed an XC50 of 942 nM.

`CC(C)C[C@@H]1C(=O)N[C@H](C2Cc3ccccc3C2)C(=O)N1[C@@H](C(=O)O)c1ccc(F)cc1F` registered an XC50 of 836 nM.

`O=C(/C=C/c1ccc(Cl)c(Cl)c1)NCCCCCN1CCC(c2c[nH]c3ccccc23)CC1` returned an XC50 of 781 nM.

As for `C#CCN(Cc1ccc2[nH]c(N)nc(=O)c2c1)c1ccc(C(=O)N[C@@H](CCC(=O)O)C(=O)O)cc1`, the XC50 amounted to 217 nM.

With `Cc1ccc(C2=NNC3(S2)C(=O)Nc2ccc(C)cc23)cc1` (centres undefined), the XC50 was determined as 1020 nM.

In turn, `Cc1ncc([N+](=O)[O-])n1CCOC(=O)NC(NCC1COc2ccccc2O1)C(Cl)(Cl)Cl` (centres undefined) returned an XC50 of 223 nM.

`O=C(Nc1ccc(C(F)(F)F)cc1)c1ccc(NCCCN2CCCCCC2)c([N+](=O)[O-])c1` registered an XC50 of 315 nM.

`COc1ccc(-c2nc3c(NCc4ccccc4)nccc3[nH]2)c(OC)c1` returned an XC50 of 778 nM.

`CC(=O)c1c[nH]c(C(=O)Nc2ccc(-c3cn4ccccc4n3)cc2)c1` had an XC50 of 890 nM.

`O=C(NCc1cccc2ccccc12)c1ccc(CNC2CCN(Cc3ccccc3)CC2)cc1` gave an XC50 of 838 nM.

The compound `CCn1cc(CN2CCCC(C(=O)Nc3ccc(-c4nc5ccccc5[nH]4)cc3)C2)cn1` (centres undefined) had an XC50 of 927 nM.

As for `CCOc1cc(N)c2nc3ccc([N+](=O)[O-])cc3cc2c1`, the XC50 is 145 nM.

Take `CCn1c(Cc2ccccc2)nnc1Sc1ccc([N+](=O)[O-])c(C#N)c1`: the XC50 amounted to 1010 nM.

Compound `COc1ccc(CCN(C)CCOc2ccc(NC(=O)COc3ccc4sc5ccccc5c(=O)c4c3)cc2)cc1OC` returned an XC50 of 1100 nM.

On to `Cc1cccc(CNc2nc(C)cc(N[C@@H](Cc3ccccc3)C(=O)NC3CCCC3)n2)c1`, for which the XC50 amounted to 653 nM.

The compound `CSc1ccc2ccccc2c1CCNCCCCNCCc1c(SC)ccc2ccccc12` came in with an XC50 of 408 nM.

`CCOC(=O)c1ccc(COc2ccc(C)nc2)cc1` yielded an XC50 of 542 nM.

On to `CCCCCCCN1CC[C@@H](CCCc2ccnc3ccc(OCCCCN/C(N)=N/O)cc23)[C@@H](CC)C1`, for which the XC50 was 952 nM.

For `CC[C@H]1CN(Cc2cccc(O)c2)CC[C@H]1CCCc1ccnc2ccc(O)cc12`, the XC50 turned out to be 534 nM.

Consider `Cc1cc(=NN=Cc2ccc(Cl)cc2)c2cc(C(F)(F)F)ccc2[nH]1`, for which the XC50 came to 920 nM.

Compound `O=C1Nc2ccccc2/C1=N/NC(=S)N1CCOCC1` came in with an XC50 of 910 nM.

`COc1ccccc1CNc1ccnc(NCCc2cccc(C(F)(F)F)c2)n1` had an XC50 of 925 nM.

On to `COc1ccc(NC(=O)NC2CCN(c3ccnc4ccccc34)C2)cc1` (centres undefined), for which the XC50 came to 875 nM.

As to `COc1ccc(CNc2cc(C)nc3sc4c(c23)CCC2(C4)OCCO2)cc1`, the XC50 was found to be 953 nM.

For the compound `CCCC(C)Nc1nc(C)cc(N[C@@H](Cc2ccccc2)C(=O)Nc2ccccc2)n1` (some centres undefined), the XC50 was 863 nM.

On to `O=c1cc(NCCCNCc2cccc(I)c2)[nH]c2ccccc12`, for which the XC50 is 1020 nM.

As to `Nc1nc(N)c2c(ccc3nn(Cc4ccccc4)cc32)n1`, the XC50 was 215 nM.

`CN(C)c1ccc(CN2CCC(NC(=O)c3ccc(-c4cccc(Cl)c4)s3)CC2)cc1` yielded an XC50 of 924 nM.

The compound `CCCCNc1cc(C)nc(NCc2ccccc2)n1` returned an XC50 of 975 nM.

`FC(F)(F)c1ccc(CNCC2CCN(Cc3ccc4c(c3)OCO4)CC2)cc1` came in with an XC50 of 1360 nM.

In turn, `N#Cc1cccc(C(O)C2CN(CCC3CCCCC3)CCC2(O)c2ccccc2)c1` (centres undefined) returned an XC50 of 129 nM.

`CC(=O)c1ccc(-c2ccc(C(=O)NCCCCN3CCC(c4ccc5c(c4O)CCCC5)CC3)cc2)cc1` returned an XC50 of 762 nM.

On to `CC(Cc1ccc(SCCSc2ccccc2)cc1)NCC(O)c1cccc(Cl)c1` (centres undefined), for which the XC50 was 367 nM.

In turn, `CC[C@H](C)CNC(=O)c1cncc(-c2ccc(CNCCOc3ccccc3)cc2)c1` came in with an XC50 of 1110 nM.

`OCCc1ccc(Nc2nccc(-c3nnc4ccccn34)n2)cc1`: the XC50 was 901 nM.

With `O=C(/C=C/c1ccc(Cl)c(Cl)c1)NCCCCN1CCCN(C(=O)Nc2ccc(C(F)(F)F)cc2)CC1`, the XC50 came out at 847 nM.

In the case of `Cc1cc2c(cc1C(F)(F)F)N(C(=O)Nc1cccc(C(=O)NC3CCN(Cc4ccccc4)CC3)c1)CC2`, the XC50 was determined as 912 nM.

In the case of `CSc1cccc(Nc2nc3ccc(S(=O)(=O)NC(C)C(C)C)cc3n2[C@H](C)C(C)(C)C)c1` (some centres undefined), the XC50 came to 446 nM.

Turning to `NC1=NC2(CCCCC2)N(OCCCCCCC2CCCCC2)C(N)=N1`, the XC50 came out at 356 nM.

The compound `COc1ccc(-c2cnc3ccc(NC4CCC(O)CC4)nn23)cn1` (centres undefined) yielded an XC50 of 715 nM.

On to `COc1c(C2CCN(CCCCNC(=O)c3ccc(-c4ccc(C(=O)C(F)(F)F)cc4)cc3)CC2)ccc2c1CCCC2`, for which the XC50 worked out at 1100 nM.

`COc1cc(C(=O)NC2CCC(CN3CCC(c4c[nH]c5ccccc45)CC3)CC2)cc(Cl)n1` (centres undefined) displayed an XC50 of 688 nM.

In the case of `N#Cc1cccc(/C=C/C(=O)NC2CCC(CCN3CCc4ccc(-c5cnccn5)cc4CC3)CC2)c1` (centres undefined), the XC50 was 773 nM.

Compound `OC1CCC(Nc2ccc3ncc(-c4ccc5ccccc5c4)n3n2)CC1` (centres undefined) registered an XC50 of 978 nM.

Regarding `CCCCN(CCCC)Cc1cc(N(C)c2ccc([N+](=O)[O-])cn2)ccc1O`, the XC50 came out at 544 nM.

Compound `Cc1ccccc1C1CCN(C2CCC(NC(=O)/C=C/c3cc(F)ccc3F)CC2)CC1` (centres undefined) yielded an XC50 of 1040 nM.

In turn, `Cc1ccc(-c2cccc3c(NC(=O)Nc4ccc5nccc(N6CCN(C)CC6)c5c4)cccc23)cn1` returned an XC50 of 352 nM.

Turning to `COc1cccc(CNC(=O)NC2CCN(c3ccnc(Nc4cc(OC)c(OC)c(OC)c4)n3)C2)c1` (centres undefined), the XC50 came to 713 nM.

As for `COc1ccc(-c2cc(C(F)(F)F)n3ncc(C(=O)Nc4cc(C)ccc4O)c3n2)cc1OC`, the XC50 came out at 133 nM.

`Cc1ccccc1C1CCN(C2CCC(NC(=O)/C=C/c3ccc(C(F)(F)F)cc3F)CC2)CC1` (centres undefined) yielded an XC50 of 902 nM.

In the case of `COc1cc(C)nc2ccc(NC(=O)COCC(=O)Nc3ccc4nc(C)cc(OC)c4c3)cc12`, the XC50 amounted to 917 nM.

With `COc1ccc(Cn2c(Nc3cccc(C(F)(F)F)c3)nc3cc(C(=O)NC(C)C)cnc32)cc1Cl`, the XC50 is 973 nM.

Turning to `O=C(Nc1ccc(Cl)cn1)c1sc2ccccc2c1O`, the XC50 worked out at 1040 nM.

`CC(Cc1ccc(CN2CCN(Cc3ccccc3)CC2)cc1)NCC(O)c1cccc(C(F)(F)F)c1` (centres undefined) displayed an XC50 of 893 nM.

For `Cc1cc(C(F)(F)F)n2nc(C(=O)N(C)Cc3cncn3Cc3ccc(F)cc3)cc2n1`, the XC50 came out at 832 nM.

Turning to `CCCN(Cc1nnc(-c2ccco2)o1)C(=O)C1CCN(c2ncc(C(F)(F)F)cc2Cl)CC1`, the XC50 came to 691 nM.

With `CC(C)CCN1CCC(Oc2ccc(NC(=O)c3ccsc3)cc2Cl)CC1`, the XC50 was 1040 nM.

Take `Cc1cc(=NN=CC=Cc2ccccc2)c2cc(F)ccc2[nH]1`: the XC50 was determined as 734 nM.

Compound `Cc1ccc(O)c(CN2CCCC(COC(c3ccc(F)cc3)c3ccc(F)cc3)C2)c1` (centres undefined) gave an XC50 of 715 nM.

In turn, `CCOc1ccc(-c2nc(NC(=O)CS(=O)(=O)c3ccccc3)sc2C)cc1` had an XC50 of 510 nM.

In turn, `Cc1nc2nc(N)nc(N)c2c(C)c1Cc1cccc(C#N)c1` had an XC50 of 924 nM.

`COc1ccc2nccc([C@@H](O)CN3CCC(NCc4ccc5c(c4)sc(=O)n5C)CC3)c2c1` registered an XC50 of 258 nM.

Consider `O=[N+]([O-])c1cccc(C=NNc2nc(=Nc3ccccc3)[nH]c(=Nc3ccccc3)[nH]2)c1`, for which the XC50 is 968 nM.

With `Oc1ccc(Nc2nc(N3CCCC3)c3ccccc3n2)cc1`, the XC50 came out at 270 nM.

`CC(C)(CNCc1ccc(Cl)c(Cl)c1)c1nc(-c2ccc(Cl)c(O)c2)c(-c2ccncc2)[nH]1` displayed an XC50 of 757 nM.

As for `Cc1nc(-c2cccc(Nc3nccc(NCC(O)c4ccccc4C)n3)c2)cs1` (centres undefined), the XC50 stood at 890 nM.

`COC(=O)c1ccc(CC(C)NCC(O)c2cccc(OCc3ccccc3)c2)cc1` (centres undefined) registered an XC50 of 1160 nM.

Regarding `CCCN(CCC)S(=O)(=O)c1ccc(C(=O)Nc2nc3ccc(-c4cc(=O)[nH]c(Nc5ccccc5Cl)n4)cc3[nH]2)cc1`, the XC50 is 594 nM.

With `Cc1cc(NCCc2ccccc2)nc(NC(=N)Nc2cccc(Cl)c2)n1`, the XC50 is 181 nM.

Take `COc1ccc(OCCON)cc1`: the XC50 is 201 nM.

`Oc1ccccc1CCNC1CCc2ccccc2C1` (centres undefined) returned an XC50 of 928 nM.

`CCOC(=O)C1CCN(CCCNC(=O)/C(=C/C=C/c2cc3cc(Cl)c(Cl)cc3[nH]2)OC)CC1`: the XC50 is 1040 nM.

With `O=c1ccc(CNc2nc(NCCc3ccccc3)nc3cc(Cl)ccc23)c[nH]1`, the XC50 stood at 298 nM.

In turn, `CCCS(=O)(=O)c1nc(S(=O)(=O)c2ccc(Cl)cc2)c(N2CCCCC2)s1` had an XC50 of 1290 nM.

Consider `COCCOCCOCCn1ccc2c3c(N)nc(N)nc3ccc21`, for which the XC50 is 263 nM.

Take `CC(C)(C)c1ccc(CNCCOc2ccc(Nc3nnc(-c4ccc(-c5ncc[nH]5)cc4)o3)c3ccccc23)cc1`: the XC50 stood at 135 nM.

Regarding `O=C(Nc1ccccc1O)C1CCN(c2ncnc3cc(-c4ccc(F)cc4)sc23)CC1`, the XC50 was 874 nM.

On to `Cc1noc(C)c1-c1ccc2c(Nc3ccc(C#N)cc3)c(C(N)=O)cnc2c1`, for which the XC50 is 755 nM.

In turn, `O=C(Nc1ccc([N+](=O)[O-])cc1Br)c1cc2ccccc2nc1Cl` had an XC50 of 185 nM.

Consider `CO/C(=C\C=C\c1cc2cc(Cl)c(Cl)cc2[nH]1)C(=O)NCCCN1CCN(c2cccc(OCC(=O)Nc3ccccc3)c2)CC1`, for which the XC50 was 504 nM.

Compound `O=[N+]([O-])c1cccc(CNC2CCN(Cc3ccc(C(F)(F)F)cc3)CC2)c1` came in with an XC50 of 736 nM.

Turning to `N=c1[nH]c2cccc3ccc4cccc1c4c32`, the XC50 turned out to be 918 nM.

In turn, `CC(=O)Nc1ccc(C(=O)Nc2cccc(-c3ccc(-c4nc5cc(F)ccc5[nH]4)s3)c2)cn1` gave an XC50 of 233 nM.

`Cc1nc2c(=O)sc3ccccc3c2n1Cc1ccccc1` showed an XC50 of 881 nM.

For the compound `CCN(CC)CCn1c(=N)n(CC(=O)c2ccc(-c3ccccc3)cc2)c2ccccc21`, the XC50 was determined as 1140 nM.

For `CCCCCCCNc1cc(C)nc2ccc(OC)cc12`, the XC50 came out at 671 nM.

Take `COc1cc(C(=O)N2CCN(C(C)C)CC2)ccc1CN(C)CCCCN1CCN(c2cccc(Cl)c2Cl)CC1`: the XC50 came to 704 nM.

`Cc1cc(C(=O)CN2C(=O)NC3(CCCc4ccccc43)C2=O)c(C)n1Cc1ccco1` (centres undefined): the XC50 was 1100 nM.

The values are drawn from ChEMBL document CHEMBL1157539, “Thousands of chemical starting points for antimalarial lead identification” (Nature, 2010).
